Source: patent US11020374B2, “Sulcardine salts” (HUYA Bioscience International, LLC, priority 2019, dated 2021)
“And” between values parts separate entries of the source, which are not always exact repeats. Identical values can stand only once. Counter-ions that a name gives are not always drawn.

Assays:
[1] = cited from earlier work; for pKa 1: first pKa
[2] = Dynamic vapor sorption (DVS) experiment; assay type: physicochemical; settings: for crystalline form of the salt before the DVS experiment and afterwards: XRPD form before vs after DVS; for uptake of water (DVS): at 90% RH
[3] = One-week stability studies (40° C./75% RH, 80° C., ambient light) by XRPD and HPLC; assay type: physicochemical; settings: for HPLC purity after stability experiment: 99% before; for stability by XRPD / appearance: one week at 80° C. and ambient humidity
Protocol: For all of the stability studies provided herein under the condition of 40° C. and 75% RH, samples were in an uncapped vial and stored in a stability chamber set to 40° C./75% RH. For the 80° C. studies, samples were in a sealed vial and placed in an oven set to 80° C. For the ambient light studies, the samples were in a sealed vial placed on a windowsill in the lab which was exposed to ambient natural and artificial light.

[4] = Solubility in 20 mM buffers (Example 3), slurried ca. 72 hr, HPLC concentration; assay type: physicochemical; settings: pH 1.2
Protocol: 20 mM buffers were prepared to pH 1.2 (HCl/KCl), pH 3.0 (HCl/glycine), pH 4.0 (citric acid/sodium citrate) and pH 7.4 (potassium phosphate monobasic/NaOH). To 0.5 mL of each buffer, the appropriate salt was added to form a slurry. The pH of the slurry was measured and adjusted back to the desired pH (i.e., the initial pH of the buffer) if necessary using 0.2 M buffer components (e.g. 0.2 M HCl(aq)). […] After this time, if solid remained, the pH was again adjusted back to the desired pH if necessary using 0.2 M buffer components. If no solid remained, additional solid was added to reform the slurry before the pH was again adjusted back to the desired pH if necessary using 0.2 M buffer components. All samples were then slurried for a further 2 hr before being analysed by HPLC for concentration.

[5] = GVS (gravimetric vapor sorption) with post-GVS XRPD; assay type: physicochemical; settings: 40-90-0-40% RH, 25° C., two cycles
Protocol: Form II was first observed during the GVS characterization of Form I. The material collected post-GVS analysis of Form I was analyzed by XRPD. […] The XRPD reference is “LNB15318-53-1-PostGVS” in FIG. 34.
Approximately 26 mg of Form I was placed into a mesh vapor sorption balance pan and loaded into an IGASorp Moisture Sorption Analyser balance by Hiden Analytical. The sample was subjected to a ramping profile from 40-90% relative humidity (RH) at 10% increments, maintaining the sample at each step until a stable weight had been achieved (98% step completion, minimum step length 30 minutes, maximum step length 60 minutes) at 25° C. After completion of the sorption cycle, the sample was dried using the same procedure to 0% RH, and finally taken back to the starting point of 40% RH. Two cycles were performed. The weight change during the sorption/desorption cycles were plotted, allowing for the hygroscopic nature of the sample to be determined. The material collected post-GVS analysis was analyzed by XRPD.

[6] = Sulcardine salts PK analysis, oral capsule administration; assay type: in vivo; settings: single oral capsule administration, fasted male Beagle dogs
Protocol: The pharmacokinetic objective of this study was to assess the exposure to sulcardine following oral capsule administration or intravenous (IV) infusion of sulcardine sulfate salt, sulcardine naphthoate salt, or sulcardine mono-edisylate salt (Form II) to male dogs during a pharmacokinetic study.
Non-naïve Beagle Dogs were fasted. Dosing formulations (oral [PO] capsule and intravenous [IV] infusion) were prepared on the day prior to dosing. The IV formulations were made in 10 mM Glycine (pH adjusted to 3.0±0.1), 3% Mannitol, qs in Sterile Water for Injection, USP were filtered through a 0.22 μm PVDF filter and stirred for at least 30 minutes prior to dosing. The capsule doses were encapsulated as active pharmaceutical ingredient powder into the appropriate number of […] gelatin capsules on the day prior to dosing.
Oral dosing was once on Day 1 by oral capsule administration; IV dosing was once on Day 1 by IV infusion over approximately 45 minutes (±2 minutes).
The blood samples for animals dosed orally were collected at 0.5, 1, 2, 3, 5, 8, 12, 18, 24, and 36 hours postdose. The blood samples for animals dosed IV were collected at approximately 0.33, 0.75 (end of infusion), 1.5, 3, 6, 9, 12, 18, and 24 hours post the start of infusion.
The blood samples were centrifuged under refrigerated (2° C. to 8° C.) conditions at 3,200 RPM for 10 minutes and the resulting plasma was divided into two aliquots (150 μL and remaining) then frozen and shipped for bioanalysis. Plasma samples were analyzed for concentrations of sulcardine by Citoxlab North America, Laval, Québec, Canada.
Individual sulcardine plasma concentration time profiles from sulcardine sulfate salt, sulcardine mono-edisylate salt, or sulcardine naphthoate salt treated animals were analyzed using model-independent methods (Gibaldi M, Perrier D. Pharmacokinetics. 2nd ed. New York: Marcel Dekker, Inc., 1982:409-17). Pharmacokinetic parameters were obtained/calculated for each animal on Day 1.

[7] = one week at 40° C. and 75% RH, uncapped vial
[8] = one week under ambient light conditions, sealed vial
[9] = one week under ambient light conditions
[10] = increase in relative humidity (RH) from about 10% to about 90%

Compound | crystalline form of the salt before the DVS experiment and afterwards [2] | uptake of water (DVS) [2] | stability by XRPD [3, 7] | HPLC purity after stability experiment ([3]; one week at 40° C. and 75% RH) | stability by XRPD / appearance ([3]; sealed vial) | HPLC purity after stability experiment ([3]; one week at 80° C.) [%] | stability by XRPD [3, 8] | HPLC purity after stability experiment [3, 9] | mass increase [2, 10] | further results
O=S(=O)(O)CCS(=O)(=O)O [1,2-Ethanedisulfonic acid] |  |  |  |  |  |  |  |  |  | pKa 1 [1]: −2.06
COc1ccc(NS(=O)(=O)c2cc(CN3CCCC3)c(O)c(CN3CCCC3)c2)cc1.O=S(=O)(O)c1cccc2c(S(=O)(=O)O)cccc12 [Example 5, naphthalene-1,5-disulfonic acid salt of sulcardine] | the same | about 3.3% | unchanged | 99% | unchanged | 99 | unchanged | 99% |  | mass increase ([2]; increase in relative humidity (RH) from about 5% to about 95%): about 3.3%
COc1ccc(NS(=O)(=O)c2cc(CN3CCCC3)c(O)c(CN3CCCC3)c2)cc1.O=C(O)c1ccc2ccccc2c1O [Example 8, 1-hydroxy-2-naphthoic acid salt of sulcardine] |  |  |  |  |  |  |  |  | about 0.7% | Crystallinity of the material in the solubility experiment [4]: loses crystallinity
COc1ccc(NS(=O)(=O)c2cc(CN3CCCC3)c(O)c(CN3CCCC3)c2)cc1.O=S(=O)(O)c1ccc2ccccc2c1 [Example 10, naphthalene-2-sulfonic acid salt of sulcardine] |  |  | unchanged | 99% and 98% | changed into an orange gel | 90 | unchanged by XRPD but had turned pale yellow | 99% and 97% |  | stability by XRPD / appearance ([3]; sealed vial, listed as Example 9): unchanged; HPLC purity after stability experiment ([3]; one week at 80° C., listed as Example 9): 99%; stability by XRPD ([3]; one week under ambient light conditions, sealed vial, listed as Example 9): unchanged
COc1ccc(S(=O)(=O)NCc2cc(CN3CCCC3)c(O)c(CN3CCCC3)c2)cc1 [Example 12, sulcardine hydrochloride] | the same | about 2.2% | unchanged | 98% | changed into an orange gel | 90 | unchanged | 99% | about 2.2% | 
COc1ccc(NS(=O)(=O)c2cc(CN3CCCC3)c(O)c(CN3CCCC3)c2)cc1.COc1ccc(NS(=O)(=O)c2cc(CN3CCCC3)c(O)c(CN3CCCC3)c2)cc1.O=S(=O)(O)CCS(=O)(=O)O [Example 14, hemi-ethane-1,2-disulfonic acid salt of sulcardine] | the same | about 0.5% | unchanged | 98% | unchanged | 97 | unchanged | 97% | about 0.5% | 
COc1ccc(NS(=O)(=O)c2cc(CN3CCCC3)c(O)c(CN3CCCC3)c2)cc1.O=S(=O)(O)CCS(=O)(=O)O [Example 17, mono-ethane-1,2-disulfonic acid salt of sulcardine] |  |  |  |  |  |  |  |  |  | XRPD of material collected post-GVS analysis [5]: A new pattern (denoted Form II) was observed
COc1ccc(NS(=O)(=O)c2cc(CN3CCCC3)c(O)c(CN3CCCC3)c2)cc1.O=S(=O)(O)CCS(=O)(=O)O [Example 18, mono-ethane-1,2-disulfonic acid salt of sulcardine] |  |  |  |  |  |  |  |  |  | Cmax of sulcardine in plasma ([6]; group average): 4570 ng/mL; Tmax (median peak sulcardine plasma concentration) ([6]; median): 30 min
COc1ccc(S(=O)(=O)NCc2cc(CN3CCCC3)c(O)c(CN3CCCC3)c2)cc1 [Sulcardine free base comparator, 4-methoxy-N-(3,5-bis-(1-pyrrolidinylmethyl)-4-hydroxybenzyl)benzene sulfonamide] |  |  |  |  |  |  |  |  |  | pKa 1 [1]: 6.00; pKa 2 ([1]; second pKa): 10.57; pKa 3 ([1]; third pKa): 11.65
COc1ccc(S(=O)(=O)NCc2cc(CN3CCCC3)c(O)c(CN3CCCC3)c2)cc1 [sulfate salt, Sulcardine sulfate, reference compound] |  |  |  |  |  |  |  |  |  | Cmax ([6]; dog, plasma, group average): 2820 ng/mL; Tmax ([6]; dog, plasma, median, read-out: Tmax (median peak sulcardine plasma concentration)): 2 h
